This note sets out measurements from patent US20240262806A1, “INHIBITORS OF NLRP3” (PTC THERAPEUTICS, INC., priority 2021, published 2024).

The subject of the assay is NLRP3 inflammasome. Briefly: IL-1β Secretion Assay (NLRP3-dependent IL-1β secretion in PMA-differentiated THP-1 cells, nigericin activation, HTRF). The format is cell-based. The settings on record: Homo sapiens, THP-1, THP-1 cells, 100 ng/mL PMA 24 h, compound 20 h, 2.5 μM Nigericin 3 h; read-out: IC50 IL-1β Inhibition. Summed up: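 PMA-differentiated THP-1 cells in RPMI with 5% FBS were treated with compounds at 7 concentrations in threefold DMSO dilutions. NLRP3 was activated with nigericin and secreted IL-1β measured by HTRF. IC50 from a logistic fit of percent inhibition versus concentration.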
As for `C[C@H](O)CNc1nnc(-c2c(O)cc(C3CC3)cc2F)c2cccn12` [Compound I-500], the IC50 (commonly the concentration at which inhibition is half-maximal) was in the range of 0.01 to 0.1 µM.
As for `[2H]C([2H])([2H])Oc1ccc(-c2nnc(N[C@@H]3CCCN(C)C3)n3cccc23)c(O)c1` [Compound I-501, (R)-5-(Methoxy-d3)-2-(4-((1-methylpiperidin-3-yl)amino)pyrrolo[1,2-d][1,2,4]triazin-1-yl)phenol], the IC50 is below 0.001 µM.
In the case of `COc1cc(O)c(-c2nnc(N[C@@H]3C[C@@H](F)CN(C)C3)n3cccc23)c(F)c1` [Compound I-502], the IC50 was below 0.001 µM.
Consider `CN1CCC[C@@H](Nc2nnc(-c3ccc(Br)cc3OC(F)(F)F)c3cccn23)C1` [Compound I-504], for which the concentration for half-maximal inhibition (IC50) is below 0.001 µM.
The same measure for `CCN1CCC[C@@H](Nc2nnc(-c3ccc(Cl)cc3C(F)F)c3cccn23)C1` [Compound I-505]: 0.01 to 0.1 µM; for `OCCN1CCC[C@@H](Nc2nnc(-c3ccc(Cl)cc3C(F)F)c3cccn23)C1` [Compound I-506]: 0.01 to 0.1 µM.
Take `CN1C[C@H](F)C[C@@H](Nc2nnc(-c3ccc(C4CC4)cc3C(F)F)c3cccn23)C1` [Compound I-507]: the IC50 is 0.01 to 0.1 µM.
As for `CCN1CCC[C@@H](Nc2nnc(-c3ccc(C4CC4)cc3C(F)F)c3cccn23)C1` [Compound I-508], the IC50 was in the range of 0.001 to 0.01 µM.
`OCCN1CCC[C@@H](Nc2nnc(-c3ccc(C4CC4)cc3C(F)F)c3cccn23)C1` [Compound I-509]: the IC50 was in the range of 0.001 to 0.01 µM.
As for `Oc1cc(C2CC2)cc(F)c1-c1nnc(N[C@@H]2CCCN(CC(F)F)C2)n2cccc12` [Compound I-510], the IC50 was in the range of 0.01 to 0.1 µM.
On to `Cc1cc(O)c(-c2nnc(N[C@@H]3CCCN(CC(F)F)C3)n3cccc23)c(F)c1` [Compound I-511], for which the IC50 was in the range of 0.001 to 0.01 µM.
On to `[2H]C([2H])([2H])Oc1cc(O)c(-c2nnc(N[C@@H]3CCCN(C)C3)n3cccc23)c(F)c1` [Compound I-513], for which the IC50 was below 0.001 µM.
Regarding `[2H]C([2H])([2H])Oc1cc(O)c(-c2nnc(N[C@@H]3CCCN(CC)C3)n3cccc23)c(F)c1` [Compound I-514, (R)-2-(4-((1-ethylpiperidin-3-yl)amino)pyrrolo[1,2-d][1,2,4]triazin-1-yl)-3-fluoro-5-(methoxy-d3)phenol], the IC50 was below 0.001 µM.
In the case of `CCN1CCC[C@@H](Nc2nnc(-c3c(O)cc(C)cc3F)c3cc(C)nn23)C1` [Compound I-515], the IC50 was below 0.001 µM.
Turning to `FC(F)(F)c1ccc(-c2nnc(N[C@@H]3CCCN(C4CCOCC4)C3)n3cccc23)c(C(F)(F)F)c1` [Compound I-516], the IC50 was 0.001 to 0.01 µM.
On to `FC(F)(F)c1ccc(-c2nnc(N[C@@H]3CCCN(C4CCOC4)C3)n3cccc23)c(C(F)(F)F)c1` (some centres unmarked) [Compound I-517], for which the IC50 is 0.001 to 0.01 µM.
The same measure for `Oc1cc(Cl)ccc1-c1nnc(N[C@@H]2CCCOC2)n2cncc12` [Compound I-518, (R)-5-Chloro-2-(4-((tetrahydro-2H-pyran-3-yl)amino)imidazo[1,5-d][1,2,4]triazin-1-yl)phenol]: 0.001 to 0.01 µM; for `CN1CCC[C@@H](Nc2nnc(-c3ccc(OC(F)(F)F)cc3OC(F)F)c3cccn23)C1` [Compound I-519]: 0.001 to 0.01 µM.
For the compound `OCCN1CCC[C@@H](Nc2nnc(-c3ccc(OC(F)(F)F)cc3OC(F)F)c3cccn23)C1` [Compound I-520], the IC50 was 0.001 to 0.01 µM.
As to `CN1C[C@H](F)C[C@@H](Nc2nnc(-c3ccc(OC(F)(F)F)cc3OC(F)F)c3cccn23)C1` [Compound I-521], the IC50 was in the range of 0.001 to 0.01 µM.
With `C[C@]1(O)C[C@@H](Nc2nnc(-c3ccc(OC(F)(F)F)cc3OC(F)F)c3cccn23)C1` [Compound I-522], the IC50 is 0.01 to 0.1 µM.
For the compound `C[C@]1(O)C[C@@H](Nc2nnc(-c3ccc(OC(F)(F)F)cc3O)c3cccn23)C1` [Compound I-523], the half-maximal inhibitory concentration (IC50) fell in the range of 0.01 to 0.1 µM.
As for `O[C@H]1CCC[C@@H](Nc2nnc(-c3ccc(C(F)(F)F)cc3OC(F)F)c3c(F)ccn23)C1` [Compound I-524], the IC50 fell in the range of 0.01 to 0.1 µM.
The value for `C[C@]1(O)C[C@@H](Nc2nnc(-c3ccc(C(F)(F)F)cc3OC(F)F)c3c(F)ccn23)C1` [Compound I-525] was 0.01 to 0.1 µM; that for `Oc1cc(C(F)(F)F)ccc1-c1nnc(N[C@@H]2CCC[C@H](O)C2)n2ccc(F)c12` [Compound I-526] was 0.01 to 0.1 µM; that for `C[C@]1(O)C[C@@H](Nc2nnc(-c3ccc(C(F)(F)F)cc3O)c3cncn23)C1` [Compound I-527] was 0.001 to 0.01 µM.
The value for `CN1C[C@H](F)C[C@@H](Nc2nnc(-c3ccc(C(F)(F)F)cc3O)c3cncn23)C1` [Compound I-528] was below 0.001 µM; that for `OCCN1CCC[C@@H](Nc2nnc(-c3ccc(Br)cc3O)c3cccn23)C1` [Compound I-529] was 0.001 to 0.01 µM.
As for `CC(C)N1CCC[C@@H](Nc2nnc(-c3ccc(C(F)(F)F)cc3C(F)(F)F)c3cccn23)C1` [Compound I-530], the IC50 is below 0.001 µM.
`CC(C)(O)CNc1nnc(-c2ccc(C(F)(F)F)cc2C(F)(F)F)c2cccn12` [Compound I-531]: the IC50 fell in the range of 0.01 to 0.1 µM.
Regarding `C[C@]1(O)C[C@@H](Nc2nnc(-c3ccc(C(F)(F)F)cc3C(F)(F)F)c3cccn23)C1` [Compound I-532], the IC50 lay within 0.001 to 0.01 µM.
The value for `Cc1ccc(-c2nnc(N[C@@H]3CCCN(C)C3)n3cccc23)c(C(F)(F)F)c1` [Compound I-533] was 0.001 to 0.01 µM; that for `CN1CCC[C@@H](Nc2nnc(-c3ccc(C4CC4)cc3C(F)(F)F)c3cccn23)C1` [Compound I-534] was below 0.001 µM.
Take `CCN1C[C@H](F)C[C@@H](Nc2nnc(-c3ccc(C(F)(F)F)cc3C(F)(F)F)c3cccn23)C1` [Compound I-535]: the IC50 lay within 0.001 to 0.01 µM.
As to `CC(C)(O)CNc1nnc(-c2ccc(C(F)(F)F)cc2OC(F)F)c2cccn12` [Compound I-536], the IC50 was 0.01 to 0.1 µM.
In the case of `C[C@]1(O)C[C@@H](Nc2nnc(-c3ccc(C(F)(F)F)cc3OC(F)F)c3cccn23)C1` [Compound I-537], the IC50 was in the range of 0.001 to 0.01 µM.
Regarding `CCN1C[C@H](F)C[C@@H](Nc2nnc(-c3ccc(C(F)(F)F)cc3OC(F)F)c3cccn23)C1` [Compound I-538], the half-inhibitory concentration (IC50) lay within 0.001 to 0.01 µM.
With `Cc1cc(O)c(-c2nnc(NCC(C)(C)O)n3cccc23)c(F)c1` [Compound I-539], the IC50 is 0.001 to 0.01 µM.
`CC(C)(O)CNc1nnc(-c2c(O)cc(C3CC3)cc2F)c2cccn12` [Compound I-540]: the IC50 lay in the range of 0.01 to 0.1 µM.
The same measure for `CN(C)C1CCC[C@@H](Nc2nnc(-c3c(O)cc(C4CC4)cc3F)c3cccn23)C1` (some centres unmarked) [Compound I-541]: below 0.001 µM.
The same measure for `Cc1ncc2c(-c3ccc(C(F)(F)F)cc3O)nnc(N[C@@H]3CCCN(C)C3)n12` [Compound I-543, (R)-2-(6-Methyl-4-((1-methylpiperidin-3-yl)amino)imidazo[1,5-d][1,2,4]triazin-1-yl)-5-(trifluoromethyl)phenol]: below 0.001 µM; for `C[C@]1(O)C[C@@H](Nc2nnc(-c3ccc(Br)cc3O)c3ccnn23)C1` [Compound I-544]: 0.001 to 0.01 µM.
`CN1CCC[C@@H](Nc2nnc(-c3ccc(Br)cc3OCc3ccccc3)c3ccnn23)C1` [Compound I-545]: the 50% inhibitory concentration (IC50) lay in the range of 0.01 to 0.1 µM.
Consider `CN1C[C@H](F)C[C@@H](Nc2nnc(-c3ccc(Br)cc3O)c3ccnn23)C1` [Compound I-546, 5-Bromo-2-(7-(((3R,5R)-5-fluoro-1-methylpiperidin-3-yl)amino)pyrazolo[1,5-d][1,2,4]triazin-4-yl)phenol], for which the IC50 lay in the range of 0.001 to 0.01 µM.
Regarding `Oc1cc(Br)ccc1-c1nnc(N[C@@H]2CCCOC2)n2nccc12` [Compound I-547], the IC50 lay in the range of 0.01 to 0.1 µM.
As for `Oc1cc(Br)ccc1-c1nnc(N[C@@H]2CCCN(CC(F)F)C2)n2nccc12` [Compound I-548], the half-maximal inhibitory concentration (IC50) fell in the range of 0.001 to 0.01 µM.
Take `C[C@]1(O)C[C@@H](Nc2nnc(-c3ccc(Cl)cc3O)c3cncn23)C1` [Compound I-549]: the IC50 lay in the range of 0.001 to 0.01 µM.
For the compound `COc1cc(O)c(-c2nnc(N[C@@H]3CCCN(C)C3)n3nc(C)cc23)c(F)c1` [Compound I-551], the half-maximal inhibitory concentration (IC50) is below 0.001 µM.
The same measure for `CC(CO)N1CCC[C@H](Nc2nnc(-c3ccc(Br)cc3O)c3cccn23)C1` (some centres unmarked) [Compound I-552]: 0.001 to 0.01 µM; for `CC(C)N1CCC[C@H](Nc2nnc(-c3ccc(Cl)cc3O)c3cncn23)C1` [Compound I-553]: below 0.001 µM; for `CCN1CCC[C@H](Nc2nnc(-c3c(O)cc(C4CC4)cc3F)c3cc(C)nn23)C1` [Compound I-554]: below 0.001 µM.
With `CCN1CCC[C@@H](Nc2nnc(-c3c(O)cc(OC)cc3F)c3cc(C)nn23)C1` [Compound I-555], the IC50 was below 0.001 µM.
Regarding `CCN1CCC[C@@H](Nc2nnc(-c3ccc(C(F)(F)F)cc3OC(F)F)c3cc(C)nn23)C1` [Compound I-556], the IC50 fell in the range of 0.001 to 0.01 µM.
With `CN1C[C@H](F)C[C@@H](Nc2nnc(-c3ccc(Cl)cc3O)c3cncn23)C1` [Compound I-557], the IC50 was 0.001 to 0.01 µM.
`Oc1cc(Cl)ccc1-c1nnc(N[C@@H]2CCCN(CC(F)(F)F)C2)n2cncc12` [Compound I-558]: the IC50 fell in the range of 0.001 to 0.01 µM.
Turning to `Oc1cc(Cl)ccc1-c1nnc(N[C@@H]2CCCN(CC(F)F)C2)n2cncc12` [Compound I-559], the IC50 was in the range of 0.001 to 0.01 µM.
As for `Cc1cc2c(-c3c(C)cc(C(F)(F)F)cc3O)nnc(N[C@@H]3CCCN(C)C3)n2n1` [Compound I-560], the half-maximal inhibitory concentration (IC50) lay within 0.001 to 0.01 µM.
On to `Oc1cc(Cl)ccc1-c1nnc(N[C@@H]2CCOC2)n2cncc12` [Compound I-561], for which the IC50 fell in the range of 0.001 to 0.01 µM.
For the compound `COc1cc(O)c(-c2nnc(N[C@H]3C[C@@](C)(O)C3)n3cccc23)c(F)c1` [Compound I-562], the IC50 was 0.001 to 0.01 µM.
The value for `CCc1cc(O)c(-c2nnc(N[C@@H]3CCCN(C)C3)n3cccc23)c(F)c1` [Compound I-563] was below 0.001 µM; that for `CCN1CCC[C@@H](Nc2nnc(-c3ccc(Br)cc3O)c3cccn23)C1` [Compound I-564] was below 0.001 µM; that for `CCN1CCC[C@@H](Nc2nnc(-c3ccc(OC(F)(F)F)cc3OC(F)F)c3cccn23)C1` [Compound I-565] was 0.001 to 0.01 µM.
